Data set [1] deals with CD55 expression in A549 cells. Put plainly: CRISPR/Cas9 RNP delivery, CD55 knockdown by flow cytometry. Format: cell-based. As to conditions: 3 days, enantiomeric coacervates. The procedure:
complexed with lipofectamine 2000 (3.2 µL) served as controls. GFP expression was assessed qualitatively after 96 h using a Lionheart FX automated microscope (BioTek Instruments, Inc.).
We employed TrueCut Cas9 protein for the knockout of CD55 gene using CRISPR technology, aided with chiral (GHGXY)4 peptide coacervates. The transfection of the Cas9 RNPs (protein + gRNA) was done according to manufacturer’s protocol (Invitrogen). Briefly, A549 cells were cultured in complete DMEM media (supplemented with 10% FBS and 5% Pen Strep) in T-75 flask till full confluency. Cells were then plated at a concentration of 2×10^4 cells/mL in 24 well […]
plates in DMEM media for 24 h. […]
confluent. For positive control, we mixed the TrueCutTM Cas9 protein/sgRNA in Opti-MEM media (17.8 μL) at a concentration of 12.50 μg (75 pmol; Stock 0.5 mg/mL) and 2.4 μg (75 pmol; Stock 1 nmol) for protein and sgRNA respectively, containing 50 μL LipofectamineTM Cas 9 PlusTM reagent (Total Volume: 100 μL) in a RNAse -free microcentrifuge tube. […]
(DAF) Antibody (anti-human; miltenyibiotec Cat#130-126-382). […] Data were analyzed with FlowJo version 10. […] was quantified as the percentage CD55+ cells, considering untreated cells as the negative control and Lipofectamine treated ones as the positive control. […]
Background: In flow cytometry, cells or beads pass a laser one at a time.

Data set [2] in a line: Optical microscopy of coacervate formation (LLPS). The following applies: optical microscopy, 1× PBS; across multiple synthesis batches. Format: physicochemical. The source says: NaCl) was used to study ionic strength effects. The absorbance was further converted to turbidity using methods previously described 1 and data was plotted as relative turbidity.
Optical microscopy and dynamic light scattering (DLS)
Droplets were visualized in 1×PBS using NCI Leica DMC4500 microscope in reflection mode with differential interference contrast. Images were captured with a DMC4500 camera under the control of Leica LAS X software (version 3.4.2). […]

The values that follow come from article PMC11955804, “Histidine-rich enantiomeric peptide coacervates enhance antigen sequestration and presentation to T cells” (Chemical Science, 2025).

Regarding (GHGLY)4 [GL 20], the “delivery of Cas9 RNP complex / decrease in CD55 expression on the cell surface” value in data set [1] is “not highly effective”. The coacervate formation entry in data set [2] was “Consistent coacervate formation”.
Taken in the same sequence, the figures for (GHGVY)4 [GV 20] were “successfully delivered the RNP complex” and “Consistent coacervate formation”.
